The values below come from patent US20250288584A1, “COMBINATIONS COMPRISING POSITIVE ALLOSTERIC MODULATORS OR ORTHOSTERIC AGONISTS OF METABOTROPIC GLUTAMATERGIC RECEPTOR SUBTYPE 2 AND THEIR USE” (JANSSEN PHARMACEUTICA NV, priority 2014, published 2025).

“Also recorded” adds a separate entry of the source.

The subject of series [1] is 6 Hz (44 mA) psychomotor seizures. In words: 6 Hz psychomotor seizure test, 44 mA (alone, combination with LEV, isobolographic study). The class given is in vivo, mice. As to the method:
Test compounds were administered using an optimal fluid volume to body fluid ratio. Test compounds were administered to mice in a volume of 0.01 mL/g of body weight (White H. S., et al., General Principles: Experimental selection, quantification, and evaluation of antiepileptic drugs, in Antiepileptic Drugs, Fourth Edition, […], and B. S. Meldrum, Editors. 1995, Raven Press, Ltd.: New York, pp. 99-110). For subcutaneous (s.c.) administration, the test compounds were administered into a loose fold of skin along the back of the animal except compound 6-b, which was administered orally (p.o). […] The animals were maintained on an adequate diet (Prolab RMH 3000) and allowed free access to food and water, except during the short time they were removed from their cage for testing. Animals newly received in the laboratory were allowed sufficient time to correct for possible food and water restriction incurred during transit before being employed in testing. All mice were housed in plastic cages in specially constructed rooms with controlled humidity, exchange of air and controlled lighting (12 hours on-12 hours off). The animals were housed, fed, and handled in a manner consistent with the recommendations in the National Council Publication, “Guide for the Care and Use of Laboratory Animals”. In the determination of an ED50 or TD50 for each test compound, the first dose administered is usually the same dose as that used in a successful TPE determination. […] Third and fourth doses were selected to produce an evenly spaced dose response line. […] The 6 Hz seizure test is used as a model of pharmacoresistant limbic seizures. […] Focal seizures were induced in mice via corneal stimulation (6 Hz, 0.2 msec rectangular pulse, 3 sec duration; Barton et al. 2001). Mice were tested at either 32 mA or 44 mA. […] The seizures that arise from corneal stimulation in this assay are characterized by a minimal clonic phase followed by stereotyped automatistic behaviors including stun, forelimb clonus, twitching of the vibrissae, and Straub-tail. Animals not displaying these behaviors were considered protected. […] In addition to recording the efficacy and toxicity data for these compounds alone or in combination, both plasma and brain samples were collected from each of the groups for pharmacokinetic/pharmacokinetic analysis. No pharmacokinetic interaction was observed based on compound levels in the plasma and brain samples (data not shown). Isobolographic studies were conducted for the combined administration of Co. […] Studies were conducted according to previously described methods (Madsen et al. 2011). Initial ED50 values were determined for both Co. […] Co. […] Doses used were proportional to calculated ED50 values. […] Experimental treatment doses (see Table 4) were based on theoretical values and adjusted according to observed effects. Experimentally determined ED50 (+SEM) values for each fixed dose-ratio combination were compared to the theoretical values (t-test) for statistical purposes. […] Subsequently, the experimental combined doses were determined for the same paradigms in the 6 Hz seizure test (Table 4 below).

Series [2] is described as follows: Minimal motor impairment (rotarod). The class given is in vivo, mice. How it is done: Acute MMI was assessed by a combination of direct observations of the animal for overt symptoms of the animal's neurological or muscular function. In mice, the rotarod procedure was used to disclose minimal muscular or neurological impairment. When a mouse is placed on a rod that rotates at a speed of 6 rpm, the animal can maintain its equilibrium for long periods of time. The animal was considered toxic if it fell off this rotating rod three times during a 1 min period.
In the determination of an ED50 or TD50 for each test compound, the first dose administered is usually the same dose as that used in a successful TPE determination.
If the initial dose employed was effective or toxic in more than 50% of animals, the next dose would be one-half that of the initial dose; if the initial dose was effective or toxic in less than 50% of animals, the following dose would be twice that of the initial dose. Third and fourth doses were selected to produce an evenly spaced dose response line. There should be a minimum of 4 points either including or lying between 0 and 100%.

Series [3] deals with 6 Hz (32 mA) psychomotor seizures. Put plainly: 6 Hz psychomotor seizure test, 32 mA (incl. TPE determination). Format: in vivo, mice. How it is done:
Test compounds were administered using an optimal fluid volume to body fluid ratio. Test compounds were administered to mice in a volume of 0.01 mL/g of body weight (White H. S., et al., General Principles: Experimental selection, quantification, and evaluation of antiepileptic drugs, in Antiepileptic Drugs, Fourth Edition, […], and B. S. Meldrum, Editors. 1995, Raven Press, Ltd.: New York, pp. 99-110). For subcutaneous (s.c.) administration, the test compounds were administered into a loose fold of skin along the back of the animal except compound 6-b, which was administered orally (p.o). […] The animals were maintained on an adequate diet (Prolab RMH 3000) and allowed free access to food and water, except during the short time they were removed from their cage for testing. Animals newly received in the laboratory were allowed sufficient time to correct for possible food and water restriction incurred during transit before being employed in testing. All mice were housed in plastic cages in specially constructed rooms with controlled humidity, exchange of air and controlled lighting (12 hours on-12 hours off). The animals were housed, fed, and handled in a manner consistent with the recommendations in the National Council Publication, “Guide for the Care and Use of Laboratory Animals”. In the determination of an ED50 or TD50 for each test compound, the first dose administered is usually the same dose as that used in a successful TPE determination. […] Third and fourth doses were selected to produce an evenly spaced dose response line. […] TPE was determined using the 6 Hz (32 mA) assay. […] The 6 Hz seizure test is used as a model of pharmacoresistant limbic seizures. […] Focal seizures were induced in mice via corneal stimulation (6 Hz, 0.2 msec rectangular pulse, 3 sec duration; Barton et al. 2001). Mice were tested at either 32 mA or 44 mA. […] The seizures that arise from corneal stimulation in this assay are characterized by a minimal clonic phase followed by stereotyped automatistic behaviors including stun, forelimb clonus, twitching of the vibrissae, and Straub-tail. Animals not displaying these behaviors were considered protected.

The next series concerns the target T1, human mGlu2 receptor (Homo sapiens, UniProt Q14416).
T1 construct: expressed in transfected cells; host or cells: CHO cells
Put plainly: [35S]GTPγS binding assay, mGluR2 PAM. Format: biochemical. To be noted: GTPγS assay; read-out: Emax. As to the method:
The [^35S]GTPγS binding assay is a functional membrane-based assay used to study G-protein coupled receptor (GPCR) function whereby incorporation of a non-hydrolysable form of GTP, [^35S]GTPγS (guanosine 5′-triphosphate, labelled with […] ^35S), is measured.
Cells were then collected by scraping in PBS and cell suspension was centrifuged (10 min at 4000 RPM in benchtop centrifuge). Supernatant was discarded and pellet gently resuspended in 50 mM Tris-HCl, pH 7.4 by mixing with a vortex and pipetting up and down. The suspension was centrifuged at 16,000 RPM (Sorvall RC-5C plus rotor SS-34) for 10 minutes and the supernatant discarded. The pellet was homogenized in 5 mM Tris-HCl, pH 7.4 using an ultra-turrax homogenizer and centrifuged again (18,000 RPM, 20 min, 4° C.). The final pellet was resuspended in 50 mM Tris-HCl, pH 7.4 and stored at-80° C. in appropriate aliquots before use. Protein concentration was determined by the Bradford method (Bio-Rad, USA) with bovine serum albumin as standard.
Measurement of mGluR2 positive allosteric modulatory activity of test compounds was performed as follows. Test compounds and glutamate were diluted in assay buffer containing 10 mM HEPES acid, 10 mM HEPES salt, pH 7.4, 100 mM NaCl, 3 mM MgCl2 and 10 μM GDP. Human mGlu2 receptor-containing membranes were thawed on ice and diluted in assay buffer supplemented with 14 μg/ml saponin. Membranes were pre-incubated with compound alone or together with a predefined (˜EC20) concentration of glutamate (PAM assay) for 30 min at 30° C. After addition of [^35S] GTPγS (f.c. 0.1 nM), assay mixtures were shaken briefly and further incubated to allow [^35S] GTPγS incorporation on activation (30 minutes, 30° C.). Final assay mixtures contained 7 μg of membrane protein in 10 mM HEPES acid, 10 mM HEPES salt, pH 7.4, 100 mM NaCl, 3 mM MgCl2, 10 µM GDP and 2 μg/ml saponin. Total reaction volume was 200 μl. Reactions were terminated by rapid filtration through Unifilter-96 GF/B plates (Perkin Elmer, Massachusetts, USA) using a 96-well filtermate universal harvester. Filters were washed 6 times with ice-cold 10 mM NaH2PO4/10 mM Na2HPO4, pH 7.4. Filters were then air-dried, and 40 μl of liquid scintillation cocktail (Microscint-O) was added to each well. Membrane-bound radioactivity was counted in a Microplate Scintillation and Luminescence Counter from Perkin Elmer.
The concentration-response curves of representative compounds of the present invention-obtained in the presence of EC20 of mGluR2 agonist glutamate to determine positive allosteric modulation (PAM)—were generated using the Lexis software interface (developed at J&J). Data were calculated as % of the control glutamate response, defined as the maximal response that is generated upon addition of glutamate alone. Sigmoid concentration-response curves plotting these percentages versus the log concentration of the test compound were analyzed using non-linear regression analysis. The concentration producing half-maximal effect is then calculated as EC50. The pEC50 values below were calculated as the −log EC50, when the EC50 is expressed in M. Emax is defined as relative maximal effect (i.e. maximal % effect relative to the control glutamate response).
On the technique in general: GTPγS resists hydrolysis and so accumulates on activated G proteins.

As a reminder, the Emax is the greatest response seen or fitted, relative to the assay's reference.

T1 sequence (Q14416 19-872): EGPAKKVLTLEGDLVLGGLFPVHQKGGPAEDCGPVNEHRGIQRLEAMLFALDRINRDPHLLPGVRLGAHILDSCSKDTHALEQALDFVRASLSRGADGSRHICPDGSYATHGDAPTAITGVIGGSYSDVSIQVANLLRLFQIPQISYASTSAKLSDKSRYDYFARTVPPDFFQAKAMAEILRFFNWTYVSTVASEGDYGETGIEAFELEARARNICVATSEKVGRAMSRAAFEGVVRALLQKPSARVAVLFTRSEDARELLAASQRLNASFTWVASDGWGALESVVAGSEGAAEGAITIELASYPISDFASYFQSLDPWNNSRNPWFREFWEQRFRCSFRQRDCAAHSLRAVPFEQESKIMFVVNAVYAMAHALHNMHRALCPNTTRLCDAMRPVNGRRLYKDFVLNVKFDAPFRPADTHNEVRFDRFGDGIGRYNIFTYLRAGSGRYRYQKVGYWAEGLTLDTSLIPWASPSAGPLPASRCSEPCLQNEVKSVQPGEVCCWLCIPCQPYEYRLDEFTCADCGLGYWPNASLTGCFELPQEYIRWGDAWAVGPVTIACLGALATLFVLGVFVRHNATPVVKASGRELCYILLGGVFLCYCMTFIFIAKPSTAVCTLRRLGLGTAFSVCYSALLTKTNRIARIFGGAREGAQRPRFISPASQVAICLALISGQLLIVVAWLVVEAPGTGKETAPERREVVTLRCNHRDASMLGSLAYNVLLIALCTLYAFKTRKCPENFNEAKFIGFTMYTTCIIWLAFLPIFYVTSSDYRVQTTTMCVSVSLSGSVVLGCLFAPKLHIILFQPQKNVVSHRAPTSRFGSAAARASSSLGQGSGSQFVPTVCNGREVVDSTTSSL

On to `Cc1cc(-c2nc(CN3CCNCC3)no2)cc2c1C(=O)N(Cc1ccc(OC(F)(F)F)cc1)C2` [CAS 1092453-15-0, 2,3-dihydro-7-methyl-5-[3-(1-piperazinylmethyl)-1,2,4-oxadiazol-5-yl]-2-[[4-(trifluoromethoxy)phenyl]methyl]-1H-isoindol-1-one, reference compound], for which the “activity in the 6 Hz 44 mA test” value in series [1] (result in words) is “did not show activity”. Further, in series [1] (result in words), the “pharmacodynamic interaction with LEV in the 6 Hz model” value is listed as “did not display synergy”. For the same compound, the “# rotarod motor impairment/# tested” value was 0/4 in series [2] (20 mg/kg s.c., 0.25 h, 32 mA group); 0/4 in series [2] (20 mg/kg s.c., 0.5 h, 32 mA group); 0/4 in series [2] (20 mg/kg s.c., 1 h, 32 mA group); 0/4 in series [2] (20 mg/kg s.c., 2 h, 32 mA group); 0/4 in series [2] (20 mg/kg s.c., 4 h, 32 mA group); 0/4 in series [2] (40 mg/kg s.c., 0.25 h, 32 mA group). The “# rotarod motor impairment/# tested” value in series [2] (40 mg/kg s.c., 0.5 h, 32 mA group) is on record as 0/4; in series [2] (40 mg/kg s.c., 1 h, 32 mA group), 0/4; in series [2] (40 mg/kg s.c., 2 h, 32 mA group), 0/4; in series [2] (40 mg/kg s.c., 4 h, 32 mA group) it was 0/4; in series [2] (80 mg/kg s.c., 0.25 h, 32 mA group) it was 0/4; in series [2] (80 mg/kg s.c., 0.5 h, 32 mA group) it was 0/4. Besides, the “# rotarod motor impairment/# tested” value in series [2] (80 mg/kg s.c., 1 h, 32 mA group) is on record as 1/4. For the same compound, the “# protected/# tested” value in series [3] (20 mg/kg s.c., 0.25 h) was 1/4; in series [3] (20 mg/kg s.c., 0.5 h), 0/4; in series [3] (20 mg/kg s.c., 1 h), 1/4; in series [3] (20 mg/kg s.c., 2 h) it was 0/4; in series [3] (20 mg/kg s.c., 4 h) it was 0/4; in series [3] (40 mg/kg s.c., 0.25 h), 1/4. The “# protected/# tested” value is reported as 1/4 in series [3] (40 mg/kg s.c., 0.5 h); 1/4 in series [3] (40 mg/kg s.c., 1 h); 0/4 in series [3] (40 mg/kg s.c., 2 h); 0/4 in series [3] (40 mg/kg s.c., 4 h); 0/4 in series [3] (80 mg/kg s.c., 0.25 h); 0/4 in series [3] (80 mg/kg s.c., 0.5 h). In addition, in series [3] (80 mg/kg s.c., 1 h), the “# protected/# tested” value is 1/4. Also, in series [3] (result in words), the “activity in the 6 Hz 32 mA test” value is given as “Low activity; also recorded: did not show activity”.
In the case of `Cc1cc(-c2nc(CN3CCNCC3)no2)cc2c1C(=O)N(Cc1ccc(OC(F)(F)F)cc1)C2` [[CAS 1092453-15-0]], the responders at 20 mg/kg in series [1] (Mus musculus, 6 Hz (44 mA), [CAS 1092453-15-0] 20 mg/kg, alone, read-out: # protected/# tested (converted)) was 0%. Besides, in series [2] ([CAS 1092453-15-0] 20 mg/kg, alone), the “# rotarod motor impairment/# tested” value is reported as 0/8. The Emax on human mGlu2 receptor was 197%.
